Data from patent US20110117171A1, “IMPLANTABLE BONE GRAFT MATERIALS” (AFFINERGY, INC., priority 2009, published 2011).
Ends that are not written are not given here. spacer = not defined here

Experiments:
[1] = test system: human MSCs; test: Capture of MSCs from a mixed cell population with peptide on CELLECTION magnetic beads; type: cell-based; details: starting mixture 38% IM9, 56% U937, 4% MSC; FIG. 17C
From the text: In this experiment, biotinylated cell binding peptide, SEQ ID NO: 16, was attached to CELLECTION magnetic beads. The CELLECTION beads have streptavidin coupled to a magnetic particle through a DNA linker. Three different cell types, human MSCs, IM-9, and U937 cells were differentially labeled with […] dye and mixed in a ratio such that the MSCs represented ˜4% of the starting cell mixture (the percentage of each cell type in the starting mixture was 38% IM9, 56% U937, and 4% MSC). The cell binding peptide, SEQ ID NO: 16, was biotinylated as described herein at Example 2, as was a general cell binding peptide for use as a control peptide in the experiment. Magnetic particles with no peptide attached, as well as magnetic beads having attached either the cell binding peptide, SEQ ID NO: 16, or the control peptide were tested for their ability to capture human MSCs. The starting cell mixture was incubated with magnetic beads having either attached peptide or no peptide, the beads were washed, and the captured cells were released from the beads by DNase treatment. The cells were measured by flow cytometry histograms shown in 17A-17C. The magnetic beads without peptide captured little or no cells (FIG. 17B). The magnetic beads with attached cell binding peptide SEQ ID NO: 16 captured a cell population that was 96% MSCs (FIG. 17C).

[2] = test system: MSCs captured from bone marrow; test: Osteoblast differentiation of captured MSCs (Alizarin Red S); type: cell-based, human; details: 14 days in osteoblast differentiation medium, FIG. 20 C/D
Procedure: Osteoblast differentiation. For osteogenic differentiation, the MSCs present in the […] column eluants (see Example 6) were cultured for 14 days in complete medium supplemented with 0.1 μM dexamethasone, 50 μM ascorbate-2-phosphate, 10 mM β-glycerophosphate, and 1% antibiotic/antimycotic. Calcium mineralization was measured by Alizarin Red S (SIGMA) staining to reveal mineralizing osteoblasts (see FIG. 20, panel C (undifferentiated MSCs) and panel D (osteoblast differentiated MSCs)).

[3] = test system: MSCs captured from bone marrow aspirate; test: Immunoreactivity of captured cells for surface antigens; type: cell-based, human; details: CD29(+), CD44(+), CD73(+), CD166(+), CD90(+), CD45(−), CD34(−)
Procedure: (§1) This experiment was performed to examine the ability of cell binding peptide SEQ ID NO: 4 to capture MSCs directly from bone marrow aspirate in comparison to two separate antibodies against the CD105 I antigen (CD105) and the MSCA-1 stem cell antigen (MSCA-1). This experiment employed biotinylated peptides with streptavidin-coated […] magnetic beads. The peptides were biotinylated as described herein at Example 2. […] For the antibody capture experiment, magnetic beads having covalently attached CD105 or MSCA-1 antibody were employed ([…]). Prior to incubation with the peptides and antibodies, bone marrow aspirate (BMA) was mixed with 5 volumes of 10 mM ammonium chloride for 1-2 min at room temperature to lyse red blood cells. The lysate was centrifuged for 5 min at 300×g and the supernatant discarded. The cell pellet was washed with wash buffer (PBS+0.5% bovine serum albumin+0.5 mM EDTA) and cells were resuspended in […] peptide at a concentration of 10^8 per mL. For peptide binding studies, the cell suspension was incubated with the biotinylated peptides for 30 min at 4° C. to allow for binding. After incubation, cells were spun down at 300×g for 5 min, and peptide solution was aspirated. Cells were then rinsed twice with wash buffer, with centrifugation between washes. […] Colony forming units (CFUs) were counted after 14 days in culture. […]

[4] = test system: human ASCs; test: Biotinylated peptide cell binding specificity by flow cytometry (Neutravidin-PE); details: 30 min at 4° C., FIG. 15
From the text: (§2) The synthetic biotinylated cell binding peptide SEQ ID NO: 4 was examined for its ability to specifically bind MSCs compared to a number of other cells types including adipose-derived mesenchymal stem cells (ASCs), dermal fibroblasts, rodent MSCs, red blood cells, monocytes, lymphocytes and granulocytes. The cell binding peptide was biotinylated as described herein at Example 2. Cultured cells of each type were either purchased (ASCs and dermal fibroblasts) or isolated from rodent bone marrow (rodent MSCs) or human blood. Cells were first harvested and resuspended at 10^6/mL in PBS+2% fetal bovine serum (FBS). An aliquot of cells (50 μL) was incubated in 50 μL of peptide solution (25 μM in PBS+FBS) for 30 min at 4° C. Cells were then washed twice in PBS+FBS with 300×g centrifugation for 5 min between washes. Fluorescently-tagged neutravidin (Neutravidin-PE from INVITROGEN) was then added to the cells to label biotinylated peptide bound to cells. Neutravidin-PE was diluted 1:250 from stock and applied at 50 μL to cells. Cells were then washed in PBS+FBS, and acquired on a BD […]. Peptide reactivity was then measured as percent positivity relative to Neutravidin-PE staining without the addition of biotinylated peptide.

[5] = test system: human MSCs; test: as above; details: 30 min at 4° C., FIG. 15
From the text: as §2

[6] = test system: dermal fibroblasts; test: as above; set-up: species or system human; details: 30 min at 4° C., FIG. 15
From the text: as §2

[7] = test system: MSCs captured from bone marrow; test: Adipocyte differentiation of captured MSCs (Oil Red O); type: cell-based, human; details: 21 days in adipocyte differentiation medium, FIG. 20 A/B
Procedure: Adipocyte differentiation. After capture of MSCs using cell binding peptide SEQ ID NO: 4 with the […] magnetic system according to Example 6, the ability of the captured cells to differentiate into an adipocyte lineage was examined. The MSCs present in the […] column eluants (see Example 6) were cultured for 21 days in complete medium (DMEM, 10% FBS, 100 units/mL penicillin, 100 μg/mL streptomycin, and 2 mM glutamine) supplemented with 0.5 mM isobutyl methylxanthine, 1 μM dexamethasone, 10 μM insulin, 200 μM indomethacin, and 1% antibiotic/antimycotic. Following the 21 day incubation, the cells were fixed in 4% paraformaldehyde in PBS for 15 minutes, washed in 60% isopropanol for 5 minutes, and stained with Oil Red O (SIGMA) for 10 minutes to determine the extent of adipogenesis (see FIG. 20, panels A (undifferentiated MSCs) and panel B (adipocyte differentiated MSCs)). The image of the adipose differentiated cells (FIG. 20, panel B) contains a larger magnification inset where the lipid vacuoles are clearly visible.

[8] = test system: MSCs directly from bone marrow aspirate; test: Capture of MSCs from bone marrow aspirate, colony forming units after 14 days; type: cell-based, human; details: streptavidin-coated MILTENYI beads, FIG. 18
Procedure: as §1

[9] = test system: MSCs captured from bone marrow; test: Chondrocyte differentiation of captured MSCs (aggrecan immunostaining); type: cell-based, human; details: 24 days in CHONDRODIFF medium, FIG. 21
Procedure: Chondrocyte differentiation. To examine chondrocyte differentiation, the MSCs present in the […] column eluants (see Example 6) were pelleted by centrifugation at 150×g for 5 minutes. Cells were washed once with 1 ml MACS NH CHONDRODIFF Medium without disturbing the pellet. Cells were spun again and 1 mL CHONDRODIFF Medium was added to each pellet. Every third day, medium was aspirated and replaced with fresh pre-warmed medium. After 24 days in culture, cells exposed to CHONDRODIFF medium formed cartilage plugs or nodules, whereas control cells formed only loose or small nodules. Cells were washed once with PBS and fixed in neutral buffered formalin overnight. Sections were embedded in paraffin and sectioned at 5 microns. Sections were examined by hemotoxylin and eosin staining (data not shown). Sections were further examined by immunostaining for aggrecan, a major structural component of cartilage. In FIG. 21, sections from the periphery (panels A and B) or center (panels C and D) were incubated with an antibody against aggrecan (ABCAM) (panels B and D) or with secondary detection reagents only as a control (panels A and C), then counterstained with DAPI to reveal cell nuclei. […] Control images of captured cells grown in the absence of differentiation medium could not be taken due to the small and loose nature of nodules.

[10] = test system: human MSCs from bone marrow aspirate; test: Capture of cultured MSCs with biotinylated peptide on […] streptavidin microbeads in LS columns; type: cell-based; details: 160,000 cultured human MSCs, peptide 20 μM on streptavidin microbeads, FIG. 16
Procedure: In this experiment the ability of the biotinylated cell binding peptide SEQ ID NO: 4 to capture human MSCs from a homogeneous cultured cell population was examined. The cell binding peptide SEQ ID NO: 4 was biotinylated as described herein at Example 2. The cell binding peptide SEQ ID NO: 4, and a non-binding control peptide, were added to separate 300 μl volumes of […] BIOTEC Streptavidin microbeads at a concentration of 20 μM. These beads are made from iron filings, coated with a dextran coating which is functionalized with streptavidin moieties. Peptide was incubated with beads for 45 min on ice. The 300 μl of peptide coated microbeads were added to pre-equilibrated LS columns outside of the magnetic field to evenly distribute the magnetic beads throughout the columns. Columns were then placed into a magnetic field, and excess peptide was washed away with buffer while retaining the peptide coated microbeads. Cultured and expanded human MSCs from bone marrow aspirate (160,000 cells; LONZA) were added to each LS column and allowed to pass through by gravity flow. Flowthrough was collected and cycled through the columns 5 times, after which the columns were washed with 5 ml buffer. […] The collected flowthrough with 5 ml wash and eluted cells were spun down, resuspended in a smaller volume, and counted by hemacytometer (see FIG. 16). […]

Sequence: SSFRFGPLGTWNYPSTDNAE (also: biotin, position not given here, on magnetic beads) [SEQ ID NO: 16, tested biotinylated on CELLECTION magnetic beads]
- MSCs in captured cell population [1]: 96%

Sequence: SSFWDVCQGDGTCYGGGSR (SSFWDVCQGDGTCYGGGSR-{spacer-biotin}; cysteine pairing not given here; reading uncertain; also: C-terminal spacer not given here) [SEQ ID NO: 4, tested biotinylated with a C-terminal spacer]
- osteogenic differentiation of captured MSCs [2]: osteogenic pathway remains intact
- immunoreactivity of isolated cells compared with CD105 isolated cells [3]: no changes were observed
- binding to human ASCs (percent positivity relative to Neutravidin-PE staining) [4]: high binding
- binding to human MSCs (percent positivity relative to Neutravidin-PE staining) [5]: high binding
- binding to dermal fibroblasts (percent positivity relative to Neutravidin-PE staining) [6]: high binding
- adipogenesis of captured MSCs [7]: adipogenesis pathway remains intact
- MSC capture (CFUs after 14 days in culture) [8]: as efficient as capture by either of the CD105 or MSCA-1 antibodies
- aggrecan in nodules formed from captured MSCs [9]: aggrecan could be detected
- capture of the MSCs [10]: approximately 70%
